In publication PMC11831592, “Repurposing Linezolid in Conjunction with Histone Deacetylase Inhibitor Access in the Realm of Glioblastoma Therapies” (Journal of Medicinal Chemistry, 2025):
Where two headings read alike, the source gives them in different places.

Experiments:
LN229 GBM cells = test: CCK8 cell proliferation assay, LN229; assay type: cell-based; details: Homo sapiens, LN-229; LN229, CCK8, 72 h
Experimental: (§1) Cell viability and drug cytotoxicity were determined by a CCK-8 kit (Cell Counting Kit-8, CK04-13, MD, USA) (CCK8, C0005, Target Molecule Corp., MA, USA) reagent. Cells were seeded 2 × 10^3 per well in the 96-well plate for 24 h, followed by treating at different concentrations of compounds for 72 h. Before the experiment, CCK8 was 10-fold diluted with the culture medium and then incubated with cells for 30 min. Finally, the OD was 450 nm absorbance and calculated for cell viability.

[1] = tested on: CT-2A mouse astrocyte cell line; test: CCK8 cell proliferation assay, CT-2A; assay type: cell-based; details: CCK8, 72 h
Experimental: as §1

[2] = Brain distribution study, UPLC of plasma and brain tissue extract; assay type: in vivo; details: mouse, ip, C57BL/6 mice, 360 mg/kg intraperitoneal
Experimental: The liquid chromatography was performed on an Acquity H class UPLC system (Waters Corp., Massachusetts, U.S.) equipped with an ACQUITY Premier PDA eλ detector (Waters Corp., Massachusetts, U.S.) with an autosampler temperature of 15 °C. Separation was performed at 25 °C on a Waters Acquity HSS T3 C18 column (2.1 mm × 100 mm, 1.8 μm particle size) with a gradient elution using A: water (containing 2 mM ammonium acetate and 0.1% formic acid) and B: acetonitrile as the mobile phase. The gradient program is as follows: 96% A (initial), 96% A (1 min), 65% A (7 min), 65% A (7.5 min), 96% A (8 min), and 96% A (12 min). The flow rate was set at 0.5 mL/min, and the injection volume was 3 μL. The UV wavelength was adjusted to 254 nm for compound 1 detection.
Following anesthesia of mice with isoflurane, blood samples were collected via a cardiac puncture. The blood was centrifuged at 2000g for 20 min at 4 °C to obtain plasma. Plasma samples were then mixed with an equal volume of 1 M zinc sulfate heptahydrate solution (cat. no. 221376, Sigma-Aldrich) and allowed to stand for 30 min. Subsequently, the mixture was centrifuged at 12,000g for 30 min at 4 °C, and the supernatant was collected for analysis. Brain tissues were homogenized using a Tenbroeck tissue grinder at a ratio of 5 μL of DMSO per mg of tissue. The homogenates were then centrifuged at 12,000g for 30 min at 4 °C, and the supernatant was collected for analysis.
Compound 1 was prepared in DMSO at a concentration of 180 mg/mL, and […] at 30 mg/mL. C57BL/6 mice were intraperitoneally injected with compound 1 at 360 mg/kg, TMZ at […], or DMSO at 2 μL/g as the control group. Mice were sacrificed by intraperitoneal injection after 30 min, and plasma as well as brain tissue extracts were collected following the aforementioned procedures.

[3] = Adverse reactions in treated tumor-bearing mice; assay type: in vivo; details: mice of the orthotopic tumor models
Experimental: For orthotopic inoculation, CT-2A cells (1 × 10^5) or CT-2A-R (2 × 10^5) were suspended in 4 μL of DMEM and implanted into the brain of B6 mice. PT#3-R cells (5 × 10^5) were suspended in 4 μL of DMEM and implanted into the brain of SCID mice. After cell implantation, mice were monitored daily for survival, and their body weight was measured every 3 days starting from the seventh day. The oral vehicle consisted of 40% ethyl oleate, 12% lecithin, 20% propylene glycol, and 28% Triton X-100. Mice were administered 5 μL of vehicle per gram of body weight along with 50 mg/kg TMZ or a combination of TMZ and compound 1. Intraperitoneal injections were administered with DMSO (solvent control), TMZ (10 μg/kg), TMZ (10 μg/kg), and compound 1 (10 or 20 μg/kg). Upon the natural death of the mice, brains were extracted and entrusted to BioTools for sectioning and HE staining.
Supplementary information VIII. Body weight changes in mice administered with vehicle, TMZ, and Compound 1 in vivo.
S-VIII-1. Body weight changes in mice administered with DMSO, TMZ, and Compound 1 intraperitoneally following orthotopic CT-2A tumor implantation .
S-VIII-2. Body weight changes in mice administered with vehicle, TMZ, and Compound 1 intraperitoneally following orthotopic CT-2AR tumor implantation.
S-VIII-3. […]

**Q.** With `O=C(/C=C/c1ccc(CNC[C@H]2CN(c3ccc(N4CCOCC4)c(F)c3)C(=O)O2)cc1)NO` [compound 1, (S,E)-3-(4-((((3-(3-Fluoro-4-morpholinophenyl)-2-oxooxazolidin-5-yl)methyl)ami-no)methyl)phenyl)-N-hydroxyacrylamide] as the compound, how does the IC50 (LN229 GBM cells) read?
**A.** The IC50 was 15.7 ± 0.93 µM.

**Q.** And the IC50 [1]?
**A.** Its IC50 is 5.88 ± 0.63 µM.

**Q.** And the concentration at 30 min ([2]; brain, read-out: Brain conc.)?
**A.** The concentration at 30 min was 831 ng/mL.

**Q.** And the Kp at 0.5 h ([2]; brain/plasma, 30 min, read-out: brain/plasma (B/P) ratio)?
**A.** The Kp at 0.5 h was 1.27.

**Q.** What about the concentration at 30 min ([2]; plasma, read-out: Plasma conc.) of the same compound?
**A.** The concentration at 30 min was 656 ng/mL.

**Q.** What about the “adverse reactions during the treatment period” value [3] of the same compound?
**A.** The value was “without adverse reactions observed”.
